Data published in patent US20220281888A1, “BICYCLIC CARBOXYLATES AS MODULATORS OF TRANSPORTERS AND USES THEREOF” (NIROGY THERAPEUTICS, INC., priority 2019, published 2022).

Tests used:
[1] = tested on: monocarboxylate transporters; assay: Lactate detection assay in tumor cell lines; type: cell-based; conditions: intracellular lactate, Lactate-glo kit, 24 hours incubation; cell line not stated
Experimental: Cells are maintained in their appropriate growth medium (RPMI medium with 2 g/L glucose, 2 mM L-glutamine supplemented with 10% FBS and P/S (growth medium). 15,000-25,000 cells were seeded into white 96-well plates in growth medium and incubated for 24 hours at 37° C. and 5% CO2. A duplicate plate was also seeded for normalization by an MTS assay. Dry weight compound stocks were dissolved to a concentration of 10 mM in 100% DMSO. Compounds were further diluted in the assay medium (Lactate media: 10 mM lactate, 5% FBS, and 1×P/S; Glucose media: RPMI, 5% FBS, and 1×P/S). Growth media was changed 24 hours later to assay medium containing 10 μM compound or vehicle (DMSO) control and incubated for 24 hours. Conditioned media was collected and the cells were washed in 200 μL ice-cold PBS. […] After a 5 minute incubation, 12.5 μL Neutralization solution (1 M Trizma) is incubated for 1 minute. Intracellular lactate measurements were performed using a Lactate-glo kit (Promega). Briefly, the lactate detection reagent is mixed immediately before use and 50 μL is pipetted into each well and incubated at room temperature for 1 hour. Lactate is oxidized by enzymatic reactions to generate light. The luminescence is recorded using a Spectramax M5e plate reader and the concentration of lactate is determined using a known concentration of spiked lactate in PBS using GraphPad Prism.

[2] = tested on: panel of solid and haematological tumor cell lines (e.g., Hs578t, SiHa, MDA-MB-231); assay: MTS cell proliferation assay; type: cell-based; conditions: 72-96 hours incubation, 10 mM lactate medium or RPMI 1640 medium, cell line not given, read-out: Cytotoxicity [IC50: μM]
Experimental: The anti-proliferation effect of MCT inhibition was investigated across a panel of solid and haematological tumor cell lines. Cells were routinely cultured in their appropriate growth medium. On day 1, between 10,000-25,000 cells/well (e.g., Hs578t: 15,000 cells/well, SiHa: 10,000 cells/well, and MDA-MB-231: 25,000 cells/well) were plated into 96-well plates. 100 μL of phosphate buffered saline solution was added to the external wells to prevent media evaporation. Plates were incubated in growth medium overnight at 37° C. in the presence of 5% CO2. On day 2, dry weight compound stocks were dissolved to a concentration of 10 mM in 100% DMSO. Compounds were further diluted in the assay medium; 10 mM lactate medium (without glucose, pyruvate, and glutamine) or RPMI 1640 medium (without pyruvate and glutamine) to generate a final dose range of 1 nM to 10 μM. Growth medium in the 96-well plate was replaced with the assay medium (10 mM lactate medium or RPMI medium or appropriate medium), and compounds were added to each well in the plate at different concentrations via serial dilution or pre-prepared solutions in assay medium. […] The absorbance of the plates was read on a Spectramax M5e plate reader using […] measurement wavelength. Dose response curves were plotted and IC50 values were calculated using GraphPad Prism. […]

IC50 [1] | Structure (SMILES) | IC50 [2]
< 1 µM | CN(C(=O)NC1CCCCC1)c1cc2oc(=O)c(C(=O)O)cc2s1 [Example 7, 2-(3-cyclohexyl-1-methylureido)-5-oxo-5H-thieno[3,2-b]pyran-6-carboxylic acid] | –
< 1 µM | CCOc1ccccc1NC(=O)N(C)c1cc2oc(=O)c(C(=O)O)cc2s1 [Example 10, 2-(3-(2-ethoxyphenyl)-1-methylureido)-5-oxo-5H-thieno[3,2-b]pyran-6-carboxylic acid] | –
– | COc1cc(Cl)ccc1NC(=O)N(C)c1cc2oc(=O)c(C(=O)O)cc2s1 [Example 18, 2-(3-(4-chloro-2-methoxyphenyl)-1-methylureido)-5-oxo-5H-thieno[3,2-b]pyran-6-carboxylic acid] | < 1 µM
– | CN(C(=O)Nc1ccc(Cl)c(Cl)c1)c1cc2oc(=O)c(C(=O)O)cc2s1 [Example 39, 2-(3-(3,4-dichlorophenyl)-1-methylureido)-5-oxo-5H-thieno[3,2-b]pyran-6-carboxylic acid] | < 1 µM
